In patent US12371434B2, “MLL1 inhibitors and anti-cancer agents” (NOVARTIS AG, priority 2020, dated 2025):

Experiments:
[1] = target: wild type MLL1 four-member complex (MLL1-4C) (Homo sapiens, UniProt Q03164); test: MLL1 LC-MS assay; type: biochemical; details: 30 nM MLL1-4C, 2.5 μM SAM, 10 μM H3K4me0; SAH production by LC-MS/MS; read-out: MLL1 LCMS
Experimental: The compounds of the present disclosure were serially and separately diluted 3-fold in DMSO to obtain a total of eight or twelve concentrations. Then the test compounds at each concentration (120 nL of each) were transferred by Mosquito into white Proxiplate plus 384-well microplate (PerkinElmer). Solutions (6 μL) of 60 nM wild type MLL1 four-member complex (MLL1-4C) and 5 μM SAM in the reaction buffer (20 mM Tris-HCl, pH8.0, 0.01% Tween 20, 1 mM DTT, 10 mM MgCl2, 0.01% BSA) were added to the wells that were then incubated with the test compound for 20 min. A 6 μL solution of 20 μM of the peptide substrate H3K4me0 (histone H3[1-21]-Biotin) in the reaction buffer was added to initiate each reaction. The final components in the reaction solution include 30 nM MLL1-4C, 2.5 μM SAM, and 10 μM H3K4me0 with varying concentration of the compounds. A positive control consisted of 30 nM MLL1-4C, 2.5 μM SAM, and 10 μM substrate in the absence of the test compound, and a negative control consisted of 2.5 μM SAM, and 10 μM substrate only. Each reaction was incubated at rt for 120 min, then stopped by addition of 3 μL per of quench solution (2.5% TFA with 320 nM d4-SAH). The reaction mixture was centrifuged (Eppendorf centrifuge 5810, Rotor A-4-62) for 2 min at 2000 rmp. The SAH production from the enzymatic assays were monitored by LC-MS/MS on an API 4000 triple quadrupole mass spec with TurboIon Spray (Applied Biosystem) coupled with Prominenece UFLC(Shimazu). The level of SAH production were then normalized based on the values coming from the positive and negative controls to give percent enzyme activities. The data were then fit to a dose response equation using the program Helios (Novartis) to get the IC50 values of the test compounds.

[2] = target: wild type MLL1 five-member complex (MLL1-5C) (Homo sapiens, UniProt Q03164); test: MLL1 Flashplate assay; type: biochemical; details: 2.5 nM MLL1-5C, 0.5 μM 3H-SAM, 1 μM H3K4me0; read-out: MLL1 flash plate
Experimental: MLL1 Flashplate Assay To assess the compound potency in MLL1 Flashplate assay, compounds were serially diluted 3-fold in DMSO to obtain a total of twelve concentrations. Then the test compounds at each concentration (250 nL of each) were transferred by Mosquito into Corning #3675 384-well plate. Solutions (15 μL) of 4.2 nM wild type MLL1 five-member complex (MLL1-5C) in the assay buffer (20 mM Tris-HCl, pH8.0, 0.01% Tween 20, 1 mM DTT, 0.01% BSA) were added to the wells. A 10 μL solution of 2.5 μM of the peptide substrate H3K4me0 (histone H3[1-21]-Biotin) and 1.25 μM ^3H-SAM in the reaction buffer was then added to initiate each reaction. The final components in the reaction solution include 2.5 nM MLL1-5C, 0.5 μM ^3H-SAM, and 1 μM H3K4me0 with varying concentration of the compounds. A positive control consisted of 2.5 nM MLL1-5C, 0.5 μM ^3H-SAM, and 1 μM substrate in the absence of the test compound, and a negative control consisted of 0.5 μM ^3H-SAM, and 1 μM substrate only. Each reaction was incubated at rt for 90 min, then stopped by addition of 5 μL per of quench solution (0.5 mM SAM in assay buffer). 25 μL of each reaction solution was transferred to FlashPlate streptavidin 384-well microplate (PerkinElmer). After at least 1 h incubation at rt, the wells were washed three times with 0.1% Tween-20 in dH2O using the BioTek plate washer. The plates were then read in MicroBeta (PerkinElmer). The radioactive readouts were then normalized based on the values coming from the positive and negative controls to give percent enzyme activities. The data were then fit to a dose response equation using the program Helios to get the IC50 values of the test compounds.

[3] = system: H3K4me3 in MV4-11 cells; test: MV4-11 H3K4Me3 cellular ELISA assay; type: cell-based; details: Homo sapiens, 48 hours, H3K4me3 signal normalized to total H3
Experimental: MV4-11H3K4Me3 Cellular ELISA Assay
MV4-11 (ATCC® CRL-9591™) was cultured with RPMI1640 medium (Thermo Fisher Scientific, cat #11875) supplemented with 10% FBS (Thermo Fisher Scientific, cat #10099141) and 50 U/ml Penicillin-Streptomycin (Thermo Fisher Scientific, cat #10378016) in humidified incubator at 37° C., 5% CO2.
200 nL compounds dissolved in DMSO were serially diluted at 1:3 ratio for 12 points starting from 10 mM and dispensed into each wells of cell culture plates (PDL-coated ViewPlate-384 Black, FTC, PerkinElmer, #6007710). 3,750 MV4-11 cells in 40 μL culture medium were seeded into each well and treated with desired concentration for 48 hours. After treatment, wash cells with cold phosphate based buffer (PBS, pH 7.4) and aspirate the remaining PBS buffer. Crude histone lysate was extracted by 40 μL 0.5M HCl for 1 hour in 4° C. following neutralization by adding 32 μL neutralization buffer (0.5M Sodium phosphate dibasic, pH˜12.5, 1.25 mM Dithiothreitol, Promega #V3151, Protease Inhibitor Cocktail, Sigma #8340) for each well. 5 μL and 20 μL of histone lysate was loaded to ELISA plate (384 Well Plates, PE HB, White, 6005620) for detection of total H3 and H3K4me3, respectively. Shake the plates gently in 4° C. for overnight. After histone binding, plates were washed with 80 μL PBS/T (PBS with 0.05% Tween-20) and blocked with 50 μL 3% BSA diluted in PBS/T per well for 1 hour. Incubate wells with primary antibody for 1 hour at room temperature using anti-H3K4me3 (CST #9727) and anti-total H3 (CST #9715) diluted 1:2000 in 3% BSA. Plates were then washed with PBS/T for 3 times and incubated with horseradish peroxidase (HRP) conjugated secondary antibody (CST #7074, 1:5000) for 1 hour at room temperature. The abundance of H3K4me3 and total H3 were measured by ECL substrates chemiluminesce (Pierce, #34080) on a plate reader (PerkinElmer EnVison 2104 Mutilable Reader). Percentage inhibition was calculated against DMSO control after normalization of H3K4me3 signal to H3 signal for individual samples. The data were then fit to a dose response curve using GraphPad Prism for IC50 calculation.

IC50 [1] [nM]	SMILES	IC50 [2] [nM]	IC50 [3] [nM]
> 100	COC[C@H](N)CCCOc1cccc(Cl)c1Cc1cnc2c(N)ncnn12 [Example 6, (R)-7-(2-((4-amino-5-methoxypentyl)oxy)-6-chlorobenzyl)imidazo[2,1-f][1,2,4]triazin-4-amine]		
> 100	COC[C@H](N)CCCOc1ccccc1Cc1cnc2c(N)ncnn12 [Example 7, (R)-7-(2-((4-amino-5-methoxypentyl)oxy)benzyl)imidazo[2,1-f][1,2,4]triazin-4-amine]		
> 100	COC[C@H](N)CCCOc1cc(Cl)cc(Br)c1Cc1cnn2c(N)ncnc12 [Example 9, (R)-8-(2-((4-amino-5-methoxypentyl)oxy)-6-bromo-4-chlorobenzyl)pyrazolo[1,5-a][1,3,5] triazin-4-amine]		> 3000
> 100	COC[C@H](N)CCCOc1cccc(Br)c1Cc1cnn2c(N)ncnc12 [Example 10, (R)-8-(2-((4-amino-5-methoxypentyl)oxy)-6-bromobenzyl)pyrazolo[1,5-a][1,3,5]triazin-4-amine]		
> 100	COC[C@H](N)CCCOc1cccc(Cl)c1Cc1cnn2c(N)ncnc12 [Example 11, (R)-8-(2-((4-amino-5-methoxypentyl)oxy)-6-chlorobenzyl)pyrazolo[1,5-a][1,3,5]triazin-4-amine]		> 3000
> 100	COC[C@H](N)CCCOc1ccccc1Cc1cnn2c(N)ncnc12 [Example 12, (R)-8-(2-((4-amino-5-methoxypentyl)oxy)benzyl)pyrazolo[1,5-a][1,3,5]triazin-4-amine]		
> 100	COC[C@H](N)CCCOc1cc(Cl)ccc1Cc1cnn2c(N)ncnc12 [Example 13, (R)-8-(2-((4-amino-5-methoxypentyl)oxy)-4-chlorobenzyl)pyrazolo[1,5-a][1,3,5]triazin-4-amine]		
> 100	COC[C@H](N)CCCOc1c(Cl)cccc1Cc1cnn2c(N)ncnc12 [Example 14, (R)-8-(2-((4-amino-5-methoxypentyl)oxy)-3-chlorobenzyl)pyrazolo[1,5-a][1,3,5]triazin-4-amine]		
50 to 100	COC[C@H](N)CCCOc1ccc(Cl)c(Cl)c1Cn1cnc2c(N)ncc(Cl)c21 [Example 18, (R)-1-(6-((4-amino-5-methoxypentyl)oxy)-2,3-dichlorobenzyl)-7-chloro-1H-imidazo[4,5-c]pyridin-4-amine]		> 3000
50 to 100	Nc1ncnn2c(Cc3c(OCCC[C@@H](N)C(=O)O)ccc(Cl)c3Cl)cnc12 [Example 24, (R)-2-amino-5-(2-((4-aminoimidazo[2,1-f][1,2,4]triazin-7-yl)methyl)-3,4-dichlorophenoxy) pentanoic acid]		> 3000
> 100	Nc1ncnc2c1ncn2Cc1c(OCC[C@H](N)C(=O)O)ccc(F)c1F [Example 25, O-(2-((6-amino-9H-purin-9-yl)methyl)-3,4-difluorophenyl)-L-homoserine]		
> 100	CC(C)c1nc(N)c2ncn(Cc3c(Cl)cc(Cl)cc3OCCC[C@@H](N)C(=O)O)c2n1 [Example 26, (R)-2-amino-5-(2-((6-amino-2-isopropyl-9H-purin-9-yl)methyl)-3,5-dichlorophenoxy)pentanoic acid]		
> 100	Nc1ncc(Cl)c2c1ncn2Cc1c(Cl)cc(Cl)cc1OCCCC(N)C(=O)O (stereo not shown) [Example 28, 2-amino-5-(2-((4-amino-7-chloro-1H-imidazo[4,5-c]pyridin-1-yl)methyl)-3,5-dichlorophenoxy) pentanoic acid]		
< 50	COC(=O)[C@H](N)CCCOc1ccc(Cl)c(Cl)c1Cn1cnc2c(N)ncnc21 [Example 33, methyl (R)-2-amino-5-(2-((6-amino-9H-purin-9-yl)methyl)-3,4-dichlorophenoxy)pentanoate]		
> 100	NC(=O)[C@H](N)CCCOc1ccc(Cl)c(Cl)c1Cc1cnc2c(N)ncnn12 [Example 35, (R)-2-amino-5-(2-((4-aminoimidazo[2,1-f][1,2,4]triazin-7-yl)methyl)-3,4-dichlorophenoxy)pentanamide]		> 3000
> 100	NC(=O)[C@H](N)CCCOc1cc(Cl)cc(Cl)c1Cn1cnc2c(N)ncc(Cl)c21 [Example 38, (R)-2-amino-5-(2-((4-amino-7-chloro-1H-imidazo[4,5-c]pyridin-1-yl)methyl)-3,5-dichlorophenoxy)pentanamide]		
> 100	CNC(=O)[C@H](N)CCCOc1ccc(Cl)c(Cl)c1Cn1cnc2c(N)ncnc21 [Example 40, (R)-2-amino-5-(2-((6-amino-9H-purin-9-yl)methyl)-3,4-dichlorophenoxy)-N-methylpentanamide]		

SMILES	IC50 [1] [nM]	IC50 [2] [nM]	IC50 [3] [nM]
COC[C@H](N)CCOc1cc(Cl)cc(Br)c1Cn1cnc2c(N)ncnc21 [Example 2, (R)-9-(2-(3-amino-4-methoxybutoxy)-6-bromo-4-chlorobenzyl)-9H-purin-6-amine]	> 100	> 100	
COC[C@@H](N)CCOc1cc(Cl)cc(C)c1Cn1cnc2c(N)ncnc21 [Example 3, (S)-9-(2-(3-amino-4-methoxybutoxy)-4-chloro-6-methylbenzyl)-9H-purin-6-amine]	> 100		> 3000
CCc1cc(Cl)cc(OCC[C@H](N)COC)c1Cn1cnc2c(N)ncnc21 [Example 4, (S)-9-(2-(3-amino-4-methoxybutoxy)-4-chloro-6-ethylbenzyl)-9H-purin-6-amine]	> 100		> 3000
CC(C)COC[C@H](N)CCCOc1ccc(Cl)c(Cl)c1Cc1cnn2c(N)ncnc12 [Example 15, (R)-8-(6-((4-amino-5-isobutoxypentyl)oxy)-2,3-dichlorobenzyl)pyrazolo[1,5-a][1,3,5]triazin-4-amine]	> 100	> 100	
NCCCCOc1cc(Cl)cc(Cl)c1Cn1cnc2c(N)nccc21 [Example 46, 1-(2-(4-aminobutoxy)-4,6-dichlorobenzyl)-1H-imidazo[4,5-c]pyridin-4-amine]	> 100		
